Converted amounts (≈) assume the structure as drawn. “Also recorded” adds a separate entry of the source. Structures can show the parent of a compound that is named as a salt. Where two headings read alike, the source gives them in different places.
Key:
[1] = tested on: A375 cells; assay: Metabolic (MEK, ERK, p38MAPK) inhibitors on G2/M arrest and apoptosis, flow cytometry; type: cell-based, human
Description: Jurkat, HeL023 and PBMC cells were centrifuged for 10 minutes at 1000×g. […] The cells were washed with PBS and the DNA was stained with a PBS solution, containing 20 μg/ml of propidium iodide and 100 μg/ml of RNAse, at room temperature for 30 minutes. Cells were analysed by FACScan (Becton-Dickinson) and the content of DNA was evaluated by the Cell-LISYS program (Becton-Dickinson). […] Briefly, the cell cycle distribution is shown as the percentage of cells containing 2n (G1 phase), 4n (G2 and M phases), 4n>x>2n. DNA amount (S phase) judged by propidium iodide staining. The apoptotic population is the percentage of cells with DNA content lower than 2n.
U01 26 was used at 10 μM as inhibitor of MEK-1 and MEK-2 to prevent extracellular signal-regulated kinase ERK-1 and ERK-2 activation.

[2] = tested on: A375 melanoma cells; assay: Colony formation assay; type: cell-based, human; settings: for colony formation: 7 days
Description: FIG. 2 illustrates colony formation assay of A375 cells. Cells were treated with different drugs and colonies were counted after 7 days. The values represent the mean±SEM of four independent experiments. D=DMSO (control); T=paclitaxel, 0.75 ng/ml; M=MRE 3008F20, 10 μM; C═CI-IB-MECA, 10 μM; TM=paclitaxel plus MRE 3008F20; TC=paclitaxel plus CI-IB-MECA treated cells. *P<0.01 TM versus T. Analysis was by ANOVA followed by Dunnett's test.;
Control plates received the same volume of DMSO alone. After 7 days of growth at 37° C. in humidified atmosphere containing 5% CO2, the cells were fixed with absolute methanol for 5′ and stained with 1/10 Giemsa/phosphate-buffered saline (PBS) staining solution for 10 minutes. Staining solution was removed and colonies of greater than 30 cells were scored as survivors. For each treatment, six individual wells were scored.

[3] = tested on: human colon carcinoma HT29 cell line; assay: MTT growth inhibitory assay, HT29; type: cell-based; settings: for IC50: Homo sapiens, HT-29, HT29 cells, read-out: IC50 of anti-neoplastic agent used jointly with A3 antagonist; for HT29 more refractory than the A375 cell line: ratio of IC50 HT29 vs A375
From the text: (§1) The cells are sub-cultured twice a week.

[4] = tested on: human lung carcinoma SKMES cell line; assay: MTT growth inhibitory assay, SKMES; type: cell-based; settings: SKMES cells, read-out: IC50 of anti-neoplastic agent used jointly with A3 antagonist
From the text: as §1

[5] = molecular target: T1, P-gp (Homo sapiens, UniProt P08183); assay: Rhodamine 123 efflux assay, HeL023 cells; type: cell-based; design: nearly all (100±1%) the cells expressing high level of functional P-gp; endogenous in cells; host or cells: HeL023 human erythroleukemia cells; settings: for inhibition of P-gp activity (in words): Rh123 efflux; for % of Rh123 negative cells: antagonist 10 μM, cells expressing P-gp activity
T1 sequence (P08183 whole entry): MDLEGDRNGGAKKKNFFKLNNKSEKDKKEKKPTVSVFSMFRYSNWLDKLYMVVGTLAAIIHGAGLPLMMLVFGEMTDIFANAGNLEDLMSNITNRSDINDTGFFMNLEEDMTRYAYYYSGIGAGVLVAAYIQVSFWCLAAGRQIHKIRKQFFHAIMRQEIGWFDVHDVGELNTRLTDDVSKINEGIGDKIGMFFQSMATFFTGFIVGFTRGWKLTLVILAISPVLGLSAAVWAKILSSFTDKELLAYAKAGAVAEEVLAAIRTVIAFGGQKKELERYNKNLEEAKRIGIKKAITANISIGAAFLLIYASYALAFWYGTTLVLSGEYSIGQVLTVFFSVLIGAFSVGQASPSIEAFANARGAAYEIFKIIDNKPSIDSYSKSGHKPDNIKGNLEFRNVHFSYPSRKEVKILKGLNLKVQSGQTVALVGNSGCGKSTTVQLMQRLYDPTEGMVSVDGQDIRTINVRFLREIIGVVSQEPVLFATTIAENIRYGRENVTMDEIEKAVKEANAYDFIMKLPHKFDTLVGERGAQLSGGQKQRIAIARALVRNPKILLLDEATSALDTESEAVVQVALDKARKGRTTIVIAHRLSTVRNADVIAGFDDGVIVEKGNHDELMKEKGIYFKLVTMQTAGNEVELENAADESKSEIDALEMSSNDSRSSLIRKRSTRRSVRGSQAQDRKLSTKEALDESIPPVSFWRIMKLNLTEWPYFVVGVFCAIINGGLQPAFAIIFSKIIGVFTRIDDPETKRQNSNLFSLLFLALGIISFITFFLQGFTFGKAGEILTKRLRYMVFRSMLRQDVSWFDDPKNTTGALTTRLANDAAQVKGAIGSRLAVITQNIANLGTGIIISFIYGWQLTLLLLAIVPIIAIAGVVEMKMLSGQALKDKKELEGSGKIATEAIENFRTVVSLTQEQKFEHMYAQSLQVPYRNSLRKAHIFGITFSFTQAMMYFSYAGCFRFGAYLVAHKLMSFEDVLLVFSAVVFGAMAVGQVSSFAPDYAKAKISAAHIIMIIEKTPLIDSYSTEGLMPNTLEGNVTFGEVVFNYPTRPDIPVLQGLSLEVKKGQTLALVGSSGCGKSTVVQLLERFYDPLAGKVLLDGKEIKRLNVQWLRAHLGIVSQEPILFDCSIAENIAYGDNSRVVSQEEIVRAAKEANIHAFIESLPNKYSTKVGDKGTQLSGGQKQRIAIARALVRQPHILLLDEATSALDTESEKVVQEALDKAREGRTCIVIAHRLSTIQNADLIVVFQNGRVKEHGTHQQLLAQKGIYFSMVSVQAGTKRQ
Description: (§2) 5×10^5 cells from each subline were loaded with 50 ng/ml of rhodamine 123 for 30 minutes at 37° C. in medium. The cells were washed and resuspended in dye-staining agent free medium for 3 hours at 37° C. to allow rhodamine 123 efflux. The cells were then washed twice and the fluorescence of intracellular rhodamine 123 were analysed with Flow cytometer (residual fluorescence FRES). The fluorescence was compared with loaded cells maintained at 4° C. to prevent drug export (maximal fluorescence FMAX). […] Cells from each subline that were not being exposed to rhodamine 123 were used as negative controls.
(§3) Rhodamine 123 (Rh 123) retention, a P-gp functional assay, was studied in all cell lines. This assay was performed by incubating cells with Rh 123 and determining Rh 123 accumulation by measuring its fluorescence. The maximum load of Rh 123 (FMAX) was quantified at the end of treatment harvesting the cells and storing them at 4° C. to prevent any active Rh123 efflux. The P-gp drug efflux was allowed incubating Rh 123-loaded cells in fresh new medium Rh 123-free for 3 hours at 37° C. After this incubation, residual fluorescence (FRES) was measured and compared to FMAx.

[6] = molecular target: T1, P-gp; assay: Rhodamine 123 efflux assay, A375 cells; type: cell-based; design: endogenous in cells
Description: as §2, §3

With `C[S+]([O-])c1ccc(-c2nc(-c3ccncc3)c(-c3ccc(F)cc3)[nH]2)cc1` (centres unmarked) [SB203580] the “G2/M accumulation rate of inhibitor plus paclitaxel or vindesine respect to paclitaxel or vindesine alone (in words)” value [1] was “did not alter”.

With `CNC(=O)[C@H]1O[C@@H](n2cnc3c(NCc4cccc(I)c4)nc(Cl)nc32)[C@H](O)[C@@H]1O` [CI-IB-MECA] the colony formation increased ([2]; CI-IB-MECA 10 μM alone vs DMSO control) was “about 30%”, the colony formation increased ([2]; CI-IB-MECA 10 μM combined with paclitaxel 0.75 ng/ml vs paclitaxel alone) was 32% and the colony formation ([2]; CI-IB-MECA 10 μM or MRE 3008F20 10 μM combined with paclitaxel 0.75 ng/ml) was 85 % of control. The colony formation ([2]; agent alone (CI-IB-MECA 10 μM; paclitaxel 0.75 ng/ml; MRE 3008F20 10 μM)) was 130 % of control.

With `CCc1c2c(nc3ccc(OC(=O)N4CCC(N5CCCCC5)CC4)cc13)-c1cc3c(c(=O)n1C2)COC(=O)[C@]3(O)CC` [irinotecan HCL] the IC50 ([3]; with IL-10 0.5 μg/ml) was 0.77 µg/mL, the IC50 ([3]; with IL-11 0.5 μg/ml) was 0.85 µg/mL and the IC50 ([3]; with MRE3008F20 1 μg/ml) was 0.53 µg/mL. The IC50 ([4]; with IL-10 0.5 μg/ml) was 0.67 µg/mL, the IC50 ([4]; with IL-11 0.5 μg/ml) was 0.061 µg/mL and the IC50 ([4]; with MRE3008F20 1 μg/ml) was 0.57 µg/mL.

For `CCCn1cc2c(nc(NC(=O)Nc3ccccc3)n3nc(-c4ccco4)nc23)n1` [MRE 3055F20, 5-N-(4-phenylcarbamoyl)amino-8-propyl-2 (2furyl)-pyrazolo[4,3e]-1,2,4triazolo-[1,5c]pyrimidine], the “inhibition of P-gp activity (in words)” value [5] was “strong inhibitors of P-gp activity”.

For `CC[C@]1(O)C[C@@H]2CN(CCc3c([nH]c4ccccc34)[C@@](C(=O)OC)(c3cc4c(cc3OC)N(C)[C@H]3[C@@](O)(C(=O)OC)[C@H](OC(C)=O)[C@]5(CC)C=CCN6CC[C@]43[C@@H]65)C2)C1` [vinblastine], the IC50 ([4]; with IL-10 0.5 μg/ml) was 0.0011 µg/mL (≈ 0.00136 µM), the IC50 ([4]; with IL-11 0.5 μg/ml) was 0.00094 µg/mL (≈ 0.00116 µM) and the IC50 ([4]; with MRE3008F20 1 μg/ml) was 0.0013 µg/mL (≈ 0.0016 µM).

In the case of `CCCCn1cc2c(nc(NC(=O)Nc3ccccc3)n3nc(-c4ccco4)nc23)n1` [MRE 3062F20, 5-N-(4-phenyl-carbamoyl)amino-8-butyl-2(2furyl)-pyrazolo-[4,3e]-1,2,4triazolo[1,5-c]pyrimidine], the “inhibition of P-gp activity (in words)” value [5] is reported as “strong inhibitors of P-gp activity” and the “% of Rh123 negative cells” value [5] is reported as 1.0 ± 0.2%.

`Cc1ccc(NC(=O)Nc2nc3nn(C)cc3c3nc(-c4ccco4)nn23)cc1` [MRE 3046F20, 5-N-(4-methylphenyl-carbamoyl)amino-8-methyl-2 (2-furyl)-pyrazolo-[4,3e]-1,2,4-triazolo[1,5-c]pyrimidine] was tested, and the “inhibition of P-gp activity (in words)” value [5] was “strong inhibitors of P-gp activity”.

For `CCCn1cc2c(nc(NC(=O)Nc3ccc(OC)cc3)n3nc(-c4ccco4)nc23)n1` [MRE3008F20, 5-[[(4-Methoxyphenyl)amino]carbonyl]amino-8-propyl-2-(2-furyl)-pyrazolo[4,3-e]1,2,4-triazolo[1,5-c]pyrimidine], the “P-gp mediated Rh123 transport (in words)” value ([6]; MRE3008F20 10 μM) was “completely blockade of P-gp mediated Rh123 transport”, the “inhibition of P-gp activity (in words)” value [5] was “near total P-gp inhibition; also recorded: strong inhibitors of P-gp activity” and the “% of Rh123 negative cells” value [5] was 0.5 ± 0.3%.

In the case of `Nc1nc(NCCc2ccc(O)cc2)nc2nc(-c3ccco3)nn12` [ZM 241385, 4-(2-[7-amino-2-(2-furyl)-[1,2,4]triazolo[2,3-a][1,3,5]triazin-5-ylamino]ethyl)phenol], the “inhibition of P-gp activity (in words)” value [5] is reported as “much lower effect on P-gp activity”.

With `N#CC(=C(/N)Sc1ccccc1N)/C(C#N)=C(\N)Sc1ccccc1N` [U0126] the “G2/M accumulation rate of inhibitor plus paclitaxel or vindesine respect to paclitaxel or vindesine alone (in words)” value ([1]; A375, PD98059 20 μM, U0126 30 μM, SB203580 1 μM) was “did not alter” and the “effect on MRE 3008F20 blockade of P-gp (in words)” value ([6]; U0126 30 μM for 30 minutes, then MRE3008F20 10 μM) was “failed to prevent”.

In the case of `CCN(CC)c1ccc(NC(=O)Nc2nc3nn(C)cc3c3nc(-c4ccco4)nn23)cc1` [IL-10, N-1-(4-diethylamino-phenyl)-N′-5-[8-methyl-2-(2-furyl)-pyrazolo [4,3-e]1,2,4-triazolo[1,5-c]pyrimidine]-urea], the “inhibition of P-gp activity (in words)” value [5] is reported as “strong inhibitors of P-gp activity” and the “% of Rh123 negative cells” value [5] is reported as 0.4 ± 0.2%.

In the case of `COc1cccc2c1C(=O)c1c(O)c3c(c(O)c1C2=O)C[C@@](O)(C(=O)CO)C[C@@H]3O[C@H]1C[C@H](N)[C@H](O)[C@H](C)O1` [doxorubicin], the IC50 ([3]; with IL-10 0.5 μg/ml) is reported as 0.31 µg/mL (≈ 0.57 µM), the IC50 ([3]; with IL-11 0.5 μg/ml) is reported as 0.38 µg/mL (≈ 0.699 µM) and the IC50 ([3]; with MRE3008F20 1 μg/ml) is reported as 0.28 µg/mL (≈ 0.515 µM). For the same compound, the “HT29 more refractory than the A375 cell line” value [3] was “approximately 30 fold”.

For `Nc1nc2ccc(Cl)cc2c2nc(-c3ccco3)nn12` [CGS 15943, 5-amino-9-chloro-2-(furyl) 1,2,4-triazolo[1,5-c]quinazoline], the “inhibition of P-gp activity (in words)” value [5] was “much lower effect on P-gp activity”.

In the case of `O=C1c2c(O)ccc(O)c2C(=O)c2c(NCCNCCO)ccc(NCCNCCO)c21` [mitoxantrone], the “HT29 more refractory than the A375 cell line” value [3] is reported as “approximately 30 fold”.

Reference: US20050119289A1 (priority 2002, published 2005)
